Bridge positions count the residues as written; N and C are the ends. Ends that are not written are not given here.
Test system: hNav1.8
Test: Whole-cell patch clamp, hNav1.8 in HEK293 cells
Type: cell-based, human
Details: legend of Figure S3; concentration not given; 50 ms step to -10 mV, held at -80 mV
Procedure: Electrophysiological studies.
Currents were recorded from experimental cells using whole-cell patch clamptechnique at room temperature (22–25 °C). The patch pipettes were fabricated from borosilicate glass tubing using a two-stage vertical microelectrode puller (PC-10, Narishige, Japan). After establishing the whole-cell recording configuration, the resting potential was held at −80 mV for at least 5 min to allow adequate equilibration between the micropipette solution and the cell interior. The micropipette solution of sodium currents for dorsal root ganglion neurons contained (in mM): 105 CsF, 35 NaCl, 10 HEPES, 10 EGTA (pH 7.4). The external solution contained (in mM): 50 NaCl, 100 TEA.Cl, 2 KCl, 1.5 CaCl2, 10 HEPES, 1 MgCl2, and 5 glucose (pH 7.4). K+ currents were recorded using an internal solution containing the followings (in mM): KCl 140, MgCl2 2.5, HEPES 10, and EGTA 11 (pH 7.2). The external bathing solution contained the followings (in mM): NaCl 150, KCl 5, CaCl2 25, MgCl2 12, HEPES 10, and D-glucose 10 (pH 7.2). Calcium channel currents were measured using Ba2+ as the charge carrier. The external solution contained (in mM): 160 TEA-Cl, 10 HEPES, 2 BaCl2, 10 glucoses, adjusted to pH 7.4 with TEA-OH. […]
Figure S1. […] The absorbance of the elution was monitored at 280 nm. […]

Sequence: LCSENGDCAADECCVDTVFEGDMVTRSCEKTTGNFTECPGLTPIA (disulfide 2-14, 8-28, 13-38) [ISTX-I]
- effect on hNav1.8: No effect

From PMC4942781, “A sodium channel inhibitor ISTX-I with a novel structure provides a new hint at the evolutionary link between two toxin folds” (Scientific Reports, 2016)
